Data from patent publication US20110046724A1, “Expansible Biocompatible Coats Comprising a Biologically Active Substance” (Avidal Vascular GMBH, priority 2008, published 2011).

Columns and labels:
[1] = system: human endothelial progenitor cells (EPC); experiment: short-term application of paclitaxel to human endothelial progenitor cells; assay type: cell-based; conditions: effect dose and time dependent
Description: (§1) This effect is dose and time dependent; rising concentrations in paclitaxel and longer application show higher inhibition of cell proliferation and migration.

[2] = system: smooth muscle cells (SCM); experiment: short-term application of paclitaxel to smooth muscle cells; assay type: cell-based, human; conditions: effect dose and time dependent
Description: as §1

## CC(=O)O[C@H]1C(=O)[C@@]2(C)[C@H]([C@H](OC(=O)c3ccccc3)[C@]3(O)C[C@H](OC(=O)[C@H](O)[C@@H](NC(=O)c4ccccc4)c4ccccc4)C(C)=C1C3(C)C)[C@]1(OC(C)=O)CO[C@@H]1C[C@@H]2O [paclitaxel]
[1]
  apoptosis, inhibition of cell proliferation and migration: leads to apoptosis and therefore inhibition of cell proliferation and migration
[2]
  apoptosis, inhibition of cell proliferation and migration: leads to apoptosis and therefore inhibition of cell proliferation and migration
